Measurements taken from patent US8871735B2, “Methods and compositions for providing cardiac protection” (University of Medicine and Dentistry of New Jersey, priority 2008, dated 2014).
Entries after “also recorded” stand apart in the source; their conditions may differ. Where two headings read alike, the source gives them in different places.

Key:
[1] = system: H9C2 cells; test: cAMP accumulation in H9C2 cells; type: cell-based; settings: 5 μM ISO, 3 minutes, 10 μM drug
Source text: […] Fludarabine ((+)-2-Fluoro-9-(5-O-phosphono-β-D-arabinofuranosyl)-9H-purin-6-amine) and Cladribine (2-chloro-2′-deoxyadenosine) are anti-cancer drugs, Adefovir (Bis(2,2-dimethylpropanoyloxymethyl)[2-(6-amino-9H-purin-9-yl)ethoxymethyl]phosphonate) and Zidovudine are anti-HIV drugs. Zidovudine-TP is a metabolite of zidovudine which inhibits virus replication. TP; triphosphate. 3-Deazaadenosine, Formycin A (7-Amino-3-(β-D-ribofuranosyl)-1H-pyrazolo[4,3-d]pyrimidine), 2-Far (2-Fluoroadenosine), formycin A ((2S,3R,4S,5R)-2-(7-amino-2H-pyrazolo[5,4-e]pyramidin-3-yl-5-(hydroxymeth-yl)oxolane-3,4-diol), 2-FD (2-Fluoro-2′-deoxyadenosine) and 2′5′ ddAdo (2′5′-dideoxyadenosine) are experimental drugs.
Mice were anesthetized with 2.5% tribromoethanol (0.010 to 0.015 mL per gram of body weight) injected intraperitoneally, and echocardiography was performed with ultrasonography (ACUSON Sequoia C256, Siemens Medical Solutions, Malvern, Pa.). For acute injection of isoproterenol, forskolin and milrinon, a PE-10 catheter was inserted into the right jugular vein, and drugs were injected at the rate of 1 μl/s. cAMP accumulation assay in H9C2 cells, a cardiac myoblast cell line, was examined as previously described.

[2] = system: cardiac myocytes; test: ISO-stimulated cAMP accumulation in cultured cardiac myocytes; type: cell-based, mouse; settings: 10 μM compound
[3] = system: cardiac myocytes; test: ISO-induced apoptosis in cultured cardiac myocytes (DNA fragmentation ELISA); type: cell-based; settings: 100 μM ISO, 48 h
Protocol: Cultured cardiac myocytes were incubated with 100 μM ISO in the presence or absence of AC5 inhibitors at the indicated concentrations for 48 h.

[4] = system: AC6; test: Forskolin-stimulated cAMP production in heart membrane preparations from AC6Tg; type: biochemical, mouse; settings: forskolin 50 μM
[5] = system: mice; test: Basal cardiac function (echocardiography) under chronic drug infusion alone; type: in vivo, mouse; settings: chronic infusion of drug alone (3 days to 1 week)
Source text: ISO with or without AC5 inhibitors were chronically infused with osmotic mini-pump implanted subcutaneously at indicated doses for 1 week in c57Bl/6 mice. Mice were then subjected to echocardiography (a) and the hearts were removed and subjected to pathological examinations such as myocardial apoptosis (b) and fibrosis (c). n=4-8.
In C57Bl/6 mice, ISO with or without AC5 inhibitors or metoprolol were chronically infused with an osmotic mini-pump at the indicated doses for 1 week. Mice were then subjected to echocardiography (a) and heart tissue were subjected to a myocardial apoptosis assay (b). *, p<0.01 vs vehicle. #, p<0.05 vs vehicle. .dagger., p<0.01 vs ISO. .dagger-dbl., p<0.05 vs ISO. n=4-15. […] Comparisons between multiple groups were made using ANOVA with post-hoc tests.
Mice were anesthetized with 2.5% tribromoethanol (0.010 to 0.015 mL per gram of body weight) injected intraperitoneally, and echocardiography was performed with ultrasonography (ACUSON Sequoia C256, Siemens Medical Solutions, Malvern, Pa.). For acute injection of isoproterenol, forskolin and milrinon, a PE-10 catheter was inserted into the right jugular vein, and drugs were injected at the rate of 1 μl/s. cAMP accumulation assay in H9C2 cells, a cardiac myoblast cell line, was examined as previously described. […]

[6] = target: T1, AC5 (Mus musculus, UniProt P84309); test: Acute ISO, milrinone or carbachol challenge in mice chronically infused with Ara-Ade; type: in vivo
[7] = system: AC5; test: as above; type: in vivo, mouse; settings: 0.05 μg/kg IV ISO, AC5Tg
[8] = system: ERK/MEK/Bcl-2 pathway; test: Western blot of hearts after chronic ISO infusion; type: in vivo, mouse
Protocol: The activities of MEK1 and ERK1/2 signaling pathway were examined by measuring the phosphorylated and total forms.
Western blotting was conducted with commercially available antibodies, except for type 5 and type 6 AC. Western blotting for type 5 and 6 AC was performed as previously described. Protein expression was quantified by densitometry.

[9] = system: C57Bl/6 mice motor function; test: Rotarod performance test and pole test; type: in vivo, mouse; settings: mouse
Protocol: In C57Bl/6 mice, Ara-Ade was chronically infused with an osmotic mini-pump at the indicated doses for 5 days. a) Each mouse was placed on a rod subjected to evaluate Rotarod performance. Mice were left for 1 min on the rod for habituation. The rod rotated gradually increasing from 4 to 40 rpm over the course of 5 min, and the time that mice could stay without failing was recorded. Five trials were conducted for each individual 10-25 min apart. As a positive control, 1-methyl 4-phenyl 1,2,3,6-tetrahydropyridine (MPTP) was intraperitoneally injected for the indicated dose for 5 days. *, p<0.01 relative to vehicle. #, p<0.05 relative to vehicle. n=6-7. b) To evaluate bradykinesia, a pole test was performed. Mice were placed head upward on the top of a rough surfaced pole that was wrapped with gauze to prevent slipping. The time until the mouse turned completely downward (open bars, TTURN) and the time until it climbed down to the floor (closed bars, TLA) were measured.
Four days after the implantation, Rotarod performance test and pole test were examined as previously described. For MPTP injection (1-methyl 4-phenyl 1,2,3,6-tetrahydropyridine), mice were injected intraperitoneally (i.p.) with 0.1 mL of PBS or MPTP dissolved in PBS at 24-hour intervals for 5 days. The daily dose of MPTP was 30 mg/kg. […]

[10] = system: mice after coronary occlusion; test: Coronary occlusion (post-MI) survival and echocardiography; type: in vivo, mouse
Protocol: Ara-Ade (50 mg/kg/day) was chronically infused with mini-osmotic pumps implanted subcutaneously 2-3 days before the coronary occlusion. […] (b) Echocardiography was performed at 16 days after coronary occlusion.

[11] = system: C57BL/6 mice, CAO 30 min / CAR; test: Mouse ischemia and reperfusion model; type: in vivo
Protocol: Mice were divided into three different groups. Group I was administered AC5 inhibitor chronically for three weeks prior to CAO for 30 minutes followed by CAR for 24 hours. Group II was administered the AC5 inhibitor by i.v. infusion for 5 minutes immediately prior to CAO for 30 minutes followed by CAR for 24 hours. Group III was administered the AC5 inhibitor by i.v. infusion for 5 minutes immediately following CAO for 30 minutes and during CAR for 24 hours. Vehicle controls were included for all three treatment groups.
3-4 month old male C57BL/6 mice purchased from Jackson Laboratory were anesthetized by an injection of 2% 2,2,2-tribromomethanol (0.66 mg/g i.p.; Aldrich Chemical, St. Louis, Mo.). The mice were then orally intubated and mechanically ventilated. The heart was accessed via a thoracotomy at the fourth intercostals space and 7-0 silk suture passed under the left anterior descending coronary artery (LAD) at the point where it emerged from under the left atrial flap. Myocardial ischemia was achieved by occluding the LAD against a 22-gauge J-shaped stainless steel probe and verified by visually noting the regional akinesis and blanching of the left ventrical. The chest was closed in layers, with the long end of the probe remaining outside the chest wall, allowing the animal to be removed from the ventilator. After 30 min. of ischemia, reperfusion was initiated by carefully pulling the probe out form the ligature and then removing it from the chest cavity. Following the surgical procedure, the mouse was allowed to recover on a warmed surface, with supplemental oxygen delivered from a nose cone. I/R were verified by three lead electrocardiograms, which were obtained preoperatively, at the end of the ischemic interval and immediately after the initiation of reperfusion. Mice fully recovered from the surgical procedure were returned to standard animal housing conditions. The mice were under either 24 hrs of reperfusion followed by sacrifice and dual staining of the heart with TTC and Alcian Blue or kept for 4 weeks to study the heart failure progression. For the long term study post ischemia and reperfusion, the animals underwent echocardiography recording at 4 days, 2 weeks and 4 weeks after reperfusion.

[12] = system: Yorkshire pigs, CAO / CAR; test: Pig ischemia and reperfusion model; type: in vivo
Protocol: Yorkshire pigs were under anesthesia and instrumented in accordance with established procedures. After 4 days of recovery, the pigs were subjected to ischemia and reperfusion also in accordance with established procedures. At 3 hours of coronary artery reperfusion, the animals were sacrificed and the infarct size was measures with TTC staining.

[13] = Water solubility; type: physicochemical
[14] = cited from earlier work
[15] = administration of 15 mg/kg/day; read-out: plasma Cmax; cited from earlier work
[16] = target: type 5 AC (Homo sapiens, UniProt O95622); test: Double-reciprocal plots of type 5 AC catalytic activity against ATP
Protocol: (§1) Hearts and striatum were dissected from the mice and membrane preparations were made as previously described. This crude membrane preparation was used in the AC assay. AC activity was measured by a modification of the method of Salomon et al. as previously described. […] Double-reciprocal plots were examined as previously described.

[17] = target: T1, AC5; test: Forskolin-stimulated cAMP production in heart membrane preparations from AC5Tg; settings: forskolin 50 μM
Protocol: as §1

[18] = 30 min CAO, 24 hr CAR, vehicle 36%

T1 sequence (P84309 whole entry, the tested form may be a part): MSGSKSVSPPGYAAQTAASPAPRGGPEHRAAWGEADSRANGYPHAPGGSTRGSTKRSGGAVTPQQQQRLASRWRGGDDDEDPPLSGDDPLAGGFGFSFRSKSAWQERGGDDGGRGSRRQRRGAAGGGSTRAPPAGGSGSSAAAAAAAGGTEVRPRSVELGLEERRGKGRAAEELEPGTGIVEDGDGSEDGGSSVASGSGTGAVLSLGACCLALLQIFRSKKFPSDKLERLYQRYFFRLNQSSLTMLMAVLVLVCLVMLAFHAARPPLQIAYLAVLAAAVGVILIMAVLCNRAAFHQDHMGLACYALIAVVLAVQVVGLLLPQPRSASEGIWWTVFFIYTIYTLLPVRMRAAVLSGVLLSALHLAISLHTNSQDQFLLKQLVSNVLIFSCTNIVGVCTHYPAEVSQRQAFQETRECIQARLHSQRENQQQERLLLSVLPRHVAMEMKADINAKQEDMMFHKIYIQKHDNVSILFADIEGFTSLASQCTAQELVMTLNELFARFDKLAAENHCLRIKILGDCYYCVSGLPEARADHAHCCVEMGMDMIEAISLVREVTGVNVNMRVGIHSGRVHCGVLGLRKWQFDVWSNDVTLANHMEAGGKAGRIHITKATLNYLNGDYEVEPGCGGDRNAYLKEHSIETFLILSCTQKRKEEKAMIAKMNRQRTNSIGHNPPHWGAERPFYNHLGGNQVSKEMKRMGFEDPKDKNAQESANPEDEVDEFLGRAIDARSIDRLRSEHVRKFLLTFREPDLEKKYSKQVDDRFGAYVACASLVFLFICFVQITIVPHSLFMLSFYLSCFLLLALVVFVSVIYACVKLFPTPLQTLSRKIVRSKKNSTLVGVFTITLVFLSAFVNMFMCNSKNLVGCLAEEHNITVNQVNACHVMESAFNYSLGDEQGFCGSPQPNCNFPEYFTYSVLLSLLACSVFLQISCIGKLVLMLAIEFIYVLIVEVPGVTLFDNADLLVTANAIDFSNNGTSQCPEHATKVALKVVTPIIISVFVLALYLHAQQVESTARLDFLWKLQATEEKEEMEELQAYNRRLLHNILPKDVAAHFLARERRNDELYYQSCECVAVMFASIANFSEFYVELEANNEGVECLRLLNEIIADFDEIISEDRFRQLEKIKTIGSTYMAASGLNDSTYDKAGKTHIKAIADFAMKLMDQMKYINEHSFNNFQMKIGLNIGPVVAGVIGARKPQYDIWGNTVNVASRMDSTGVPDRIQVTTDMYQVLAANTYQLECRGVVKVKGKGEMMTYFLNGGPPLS
type 5 AC, sequence (O95622 whole entry): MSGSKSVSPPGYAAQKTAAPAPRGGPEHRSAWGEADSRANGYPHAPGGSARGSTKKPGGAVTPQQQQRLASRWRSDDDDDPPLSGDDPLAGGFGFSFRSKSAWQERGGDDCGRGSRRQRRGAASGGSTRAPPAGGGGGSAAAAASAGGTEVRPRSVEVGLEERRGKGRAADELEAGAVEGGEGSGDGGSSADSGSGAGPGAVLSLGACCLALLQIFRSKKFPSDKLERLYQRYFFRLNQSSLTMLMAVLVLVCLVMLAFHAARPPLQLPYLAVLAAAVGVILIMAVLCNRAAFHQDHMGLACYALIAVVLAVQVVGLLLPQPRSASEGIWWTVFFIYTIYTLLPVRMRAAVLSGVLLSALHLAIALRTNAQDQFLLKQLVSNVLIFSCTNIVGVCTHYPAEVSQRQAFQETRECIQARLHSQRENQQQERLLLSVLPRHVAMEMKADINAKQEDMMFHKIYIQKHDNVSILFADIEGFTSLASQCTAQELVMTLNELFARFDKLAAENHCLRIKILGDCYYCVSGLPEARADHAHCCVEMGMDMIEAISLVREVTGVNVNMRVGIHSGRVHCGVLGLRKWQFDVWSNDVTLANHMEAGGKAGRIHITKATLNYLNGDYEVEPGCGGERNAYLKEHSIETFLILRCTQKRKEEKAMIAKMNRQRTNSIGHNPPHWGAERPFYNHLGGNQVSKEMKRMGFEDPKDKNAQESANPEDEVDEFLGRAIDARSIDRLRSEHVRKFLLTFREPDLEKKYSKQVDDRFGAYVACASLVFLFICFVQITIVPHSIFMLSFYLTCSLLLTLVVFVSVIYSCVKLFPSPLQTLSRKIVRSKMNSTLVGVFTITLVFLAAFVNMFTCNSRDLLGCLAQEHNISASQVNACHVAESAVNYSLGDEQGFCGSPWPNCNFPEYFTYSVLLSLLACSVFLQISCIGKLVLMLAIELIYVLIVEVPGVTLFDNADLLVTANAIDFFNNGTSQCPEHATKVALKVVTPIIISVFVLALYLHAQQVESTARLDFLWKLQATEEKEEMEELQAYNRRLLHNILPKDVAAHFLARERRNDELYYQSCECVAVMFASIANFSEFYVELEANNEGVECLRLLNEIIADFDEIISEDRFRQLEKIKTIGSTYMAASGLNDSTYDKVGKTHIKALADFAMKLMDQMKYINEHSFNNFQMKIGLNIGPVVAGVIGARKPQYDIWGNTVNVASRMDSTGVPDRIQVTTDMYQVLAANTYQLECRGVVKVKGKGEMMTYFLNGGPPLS

Nc1ncnc2c1ncn2[C@@H]1O[C@H](CO)[C@@H](O)[C@@H]1O [Ara-Ade, 9-β-D-arabinofuranosyladenine]
inhibition of cAMP accumulation in H9C2 cells [1]: slight inhibition
decrease in ISO-induced cAMP production / accumulation in cultured cardiac myocytes [2]: 20%
ISO-induced apoptosis in cultured cardiac myocytes [3]: completely abolished
effective concentration in inhibiting apoptosis ([3]; FIG. 3d): 10 µM
inhibition of cAMP production, heart membrane preparation from AC6Tg [4]: little inhibitory effect
basal LVEF [5]: did not change LVEF; also recorded: did not affect basal LVEF
difference in LVEF between vehicle and Ara-Ade in WT ([6]; 0.05 μg/kg IV ISO, WT): no significant difference
LVEF after ISO vs vehicle ([6]; Ara-Ade 20 mg/kg/day chronically infused, 0.25 μg/kg IV ISO): lower
LVEF elevation by milrinone, vehicle vs Ara-Ade group ([6]; milrinone infusion): no significant difference
decrease in HR by carbachol ([6]; vehicle vs Ara-Ade): greater in vehicle than Ara-Ade
difference in LVEF between vehicle and Ara-Ade in AC5Tg [7]: significant
phosphorylation of Bcl-2 [8]: significantly increased
phosphorylation of ERK1/2 and MEK [8]: increased
BBB-permeability (concluded from motor tests) [9]: little BBB-permeability
LVEF after MI ([10]; 16 days after coronary occlusion): prevented decrease in LVEF
survival rate after coronary occlusion ([10]; Ara-Ade 50 mg/kg/day from 2-3 days before occlusion, chi-square at 16 days): significant increase in survival rate
arterial pressure and heart rate [11]: did not reduce arterial pressure and reflexly increase heart rate
infarct size, drug administered before CAO or CAR [11, 18]: 21%
infarct size, drug delivered at CAR [11, 18]: 16%
development of heart failure after ischemia and reperfusion ([11]; i.v. infusion after CAO, during or after reperfusion): prevented development of heart failure
infarct size in chronically instrumented conscious pigs ([12]; delivered after CAR): reduced infarct size
reactive hyperemia in pigs ([12]; pig, in vivo): inhibited reactive hyperemia
water solubility [13]: poorly water-soluble
Cmax ([14]; 10 mg/kg, intravenously infusion for 30 min, read-out: Cmax in human): 4.8 µM
Cmax ([14]; human, intravenous infusion 10 mg/kg, read-out: plasma Cmax): 4.8 µM
Cmax [15]: ~10 µM
mode of inhibition with respect to ATP [16]: non-competitive; also recorded: un-competitive or non-competitive
inhibition of cAMP production, heart membrane preparation from AC5Tg [17]: inhibited cAMP production
